Source: patent US20220304978A1, “INHIBITING MESANGIAL CELL ACTIVATION” (Chinook Therapeutics, Inc., priority 2019, published 2022)

System: kidney tissue of g-ddY mice
Assay: IPA upstream regulator analysis, g-ddY kidney RNA-seq
Conditions: 30 mg/kg/day
[1] = ligand-dependent nuclear receptor

ERG Activation z-score (transcription regulator): −3.672 | ERG Predicted Activation State (transcription regulator): Inhibited
Structure (SMILES): CCCCN(CCCC)C(=O)CN1C[C@H](c2ccc3c(c2)OCO3)[C@@H](C(=O)O)[C@@H]1c1ccc(OC)cc1 [atrasentan, (2R,3R,4S)-4-(1,3-benzodioxol-5-yl)-1-[2-(dibutylamino)-2-oxoethyl]-2-(4-methoxyphenyl)pyrrolidine-3-carboxylic acid]
AHR Activation z-score [1]: 2.092 | AHR Predicted Activation State [1]: Activated | ESR1 Activation z-score [1]: −2.439 | ESR1 Predicted Activation State [1]: Inhibited | ESRRA Activation z-score [1]: 2.517 | ESRRA Predicted Activation State [1]: Activated | NR3C2 Activation z-score [1]: −2.191 | NR3C2 Predicted Activation State [1]: Inhibited | NR4A1 Activation z-score [1]: −2.488 | NR4A1 Predicted Activation State [1]: Inhibited | PPARA Activation z-score [1]: 3.182 | PPARA Predicted Activation State [1]: Activated | PPARG Activation z-score [1]: 3.581 | PPARG Predicted Activation State [1]: Activated | RXRA Activation z-score [1]: 2.96 | RXRA Predicted Activation State [1]: Activated | ARNT2 Activation z-score (transcription regulator): −2.079 | ARNT2 Predicted Activation State (transcription regulator): Inhibited | BCL6 Activation z-score (transcription regulator): 2.514 | BCL6 Predicted Activation State (transcription regulator): Activated | CBX5 Activation z-score (transcription regulator): 2.355 | CBX5 Predicted Activation State (transcription regulator): Activated | CCND1 Activation z-score (transcription regulator): −3.003 | CCND1 Predicted Activation State (transcription regulator): Inhibited | CEBPD Activation z-score (transcription regulator): −2.154 | CEBPD Predicted Activation State (transcription regulator): Inhibited | CTNNB1 Activation z-score (transcription regulator): −3.373 | CTNNB1 Predicted Activation State (transcription regulator): Inhibited | DACH1 Activation z-score (transcription regulator): 2.354 | DACH1 Predicted Activation State (transcription regulator): Activated | ECSIT Activation z-score (transcription regulator): −2.72 | ECSIT Predicted Activation State (transcription regulator): Inhibited | EGR1 Activation z-score (transcription regulator): −2.766 | EGR1 Predicted Activation State (transcription regulator): Inhibited | ELK1 Activation z-score (transcription regulator): −2.151 | ELK1 Predicted Activation State (transcription regulator): Inhibited | ETS1 Activation z-score (transcription regulator): −2.096 | ETS1 Predicted Activation State (transcription regulator): Inhibited | FEV Activation z-score (transcription regulator): −3.651 | FEV Predicted Activation State (transcription regulator): Inhibited | FOXC1 Activation z-score (transcription regulator): −2.563 | FOXC1 Predicted Activation State (transcription regulator): Inhibited | FOXC2 Activation z-score (transcription regulator): −3.361 | FOXC2 Predicted Activation State (transcription regulator): Inhibited | FOXF1 Activation z-score (transcription regulator): −2.253 | FOXF1 Predicted Activation State (transcription regulator): Inhibited | FOXL2 Activation z-score (transcription regulator): −3.108 | FOXL2 Predicted Activation State (transcription regulator): Inhibited | FOXM1 Activation z-score (transcription regulator): −2.307 | FOXM1 Predicted Activation State (transcription regulator): Inhibited | FOXO3 Activation z-score (transcription regulator): 2.338 | FOXO3 Predicted Activation State (transcription regulator): Activated | GATA1 Activation z-score (transcription regulator): −3.309 | GATA1 Predicted Activation State (transcription regulator): Inhibited | GFI1 Activation z-score (transcription regulator): 2.82 | GFI1 Predicted Activation State (transcription regulator): Activated | GPS2 Activation z-score (transcription regulator): 2.51 | GPS2 Predicted Activation State (transcription regulator): Activated | HIF1A Activation z-score (transcription regulator): −2.042 | HIF1A Predicted Activation State (transcription regulator): Inhibited | HNF1A Activation z-score (transcription regulator): 4.107 | HNF1A Predicted Activation State (transcription regulator): Activated | HNF1B Activation z-score (transcription regulator): 2.944 | HNF1B Predicted Activation State (transcription regulator): Activated | HNF4A Activation z-score (transcription regulator): 4.856 | HNF4A Predicted Activation State (transcription regulator): Activated | HOXC6 Activation z-score (transcription regulator): −2.35 | HOXC6 Predicted Activation State (transcription regulator): Inhibited | IKZF1 Activation z-score (transcription regulator): 3.472 | IKZF1 Predicted Activation State (transcription regulator): Activated | IKZF3 Activation z-score (transcription regulator): 3.165 | IKZF3 Predicted Activation State (transcription regulator): Activated | IRF7 Activation z-score (transcription regulator): −4.492 | IRF7 Predicted Activation State (transcription regulator): Inhibited | IRF8 Activation z-score (transcription regulator): −2.577 | IRF8 Predicted Activation State (transcription regulator): Inhibited | JUNB Activation z-score (transcription regulator): −3.721 | JUNB Predicted Activation State (transcription regulator): Inhibited | KDM5A Activation z-score (transcription regulator): −5.858 | KDM5A Predicted Activation State (transcription regulator): Inhibited | KLF2 Activation z-score (transcription regulator): 2.742 | KLF2 Predicted Activation State (transcription regulator): Activated | KLF4 Activation z-score (transcription regulator): −3.94 | KLF4 Predicted Activation State (transcription regulator): Inhibited | KLF15 Activation z-score (transcription regulator): 3.401 | KLF15 Predicted Activation State (transcription regulator): Activated | KMT2A Activation z-score (transcription regulator): −2.246 | KMT2A Predicted Activation State (transcription regulator): Inhibited | LHX1 Activation z-score (transcription regulator): 4.214 | LHX1 Predicted Activation State (transcription regulator): Activated | MECP2 Activation z-score (transcription regulator): −2.419 | MECP2 Predicted Activation State (transcription regulator): Inhibited | MEF2D Activation z-score (transcription regulator): −3.056 | MEF2D Predicted Activation State (transcription regulator): Inhibited | MEOX2 Activation z-score (transcription regulator): 2.54 | MEOX2 Predicted Activation State (transcription regulator): Activated | MESP1 Activation z-score (transcription regulator): −2.646 | MESP1 Predicted Activation State (transcription regulator): Inhibited | MESP2 Activation z-score (transcription regulator): −2.449 | MESP2 Predicted Activation State (transcription regulator): Inhibited | MLXIPL Activation z-score (transcription regulator): 2.871 | MLXIPL Predicted Activation State (transcription regulator): Activated | MRTFA Activation z-score (transcription regulator): −3.84 | MRTFA Predicted Activation State (transcription regulator): Inhibited | MRTFB Activation z-score (transcription regulator): −4.734 | MRTFB Predicted Activation State (transcription regulator): Inhibited | MTPN Activation z-score (transcription regulator): −2.942 | MTPN Predicted Activation State (transcription regulator): Inhibited | MYCN Activation z-score (transcription regulator): 4.584 | MYCN Predicted Activation State (transcription regulator): Activated | Msx3 Activation z-score (transcription regulator): −2 | Msx3 Predicted Activation State (transcription regulator): Inhibited | NCOA3 Activation z-score (transcription regulator): −2.143 | NCOA3 Predicted Activation State (transcription regulator): Inhibited | NEUROG1 Activation z-score (transcription regulator): 3 | NEUROG1 Predicted Activation State (transcription regulator): Activated | NFE2L2 Activation z-score (transcription regulator): 3.389 | NFE2L2 Predicted Activation State (transcription regulator): Activated | NFKB1 Activation z-score (transcription regulator): −3.239 | NFKB1 Predicted Activation State (transcription regulator): Inhibited | NRIP1 Activation z-score (transcription regulator): −2.267 | NRIP1 Predicted Activation State (transcription regulator): Inhibited | PAX7 Activation z-score (transcription regulator): −2.883 | PAX7 Predicted Activation State (transcription regulator): Inhibited | PCGF2 Activation z-score (transcription regulator): 2 | PCGF2 Predicted Activation State (transcription regulator): Activated | PDX1 Activation z-score (transcription regulator): −2.958 | PDX1 Predicted Activation State (transcription regulator): Inhibited | PITX2 Activation z-score (transcription regulator): 3.976 | PITX2 Predicted Activation State (transcription regulator): Activated | PPARGC1A Activation z-score (transcription regulator): 8.123 | PPARGC1A Predicted Activation State (transcription regulator): Activated | PPARGC1B Activation z-score (transcription regulator): 2.664 | PPARGC1B Predicted Activation State (transcription regulator): Activated | PRDM1 Activation z-score (transcription regulator): 2.281 | PRDM1 Predicted Activation State (transcription regulator): Activated | RB1 Activation z-score (transcription regulator): 4.435 | RB1 Predicted Activation State (transcription regulator): Activated | REL Activation z-score (transcription regulator): −2.451 | REL Predicted Activation State (transcription regulator): Inhibited | RELA Activation z-score (transcription regulator): −4.344 | RELA Predicted Activation State (transcription regulator): Inhibited | RUNX3 Activation z-score (transcription regulator): 3.355 | RUNX3 Predicted Activation State (transcription regulator): Activated | SMAD2 Activation z-score (transcription regulator): −2.323 | SMAD2 Predicted Activation State (transcription regulator): Inhibited | SMAD3 Activation z-score (transcription regulator): −2.952 | SMAD3 Predicted Activation State (transcription regulator): Inhibited | SMAD4 Activation z-score (transcription regulator): −2.417 | SMAD4 Predicted Activation State (transcription regulator): Inhibited | SMAD7 Activation z-score (transcription regulator): 3.504 | SMAD7 Predicted Activation State (transcription regulator): Activated | SMARCA4 Activation z-score (transcription regulator): −3.211 | SMARCA4 Predicted Activation State (transcription regulator): Inhibited | SMYD1 Activation z-score (transcription regulator): 2.213 | SMYD1 Predicted Activation State (transcription regulator): Activated | SNAI1 Activation z-score (transcription regulator): −2.699 | SNAI1 Predicted Activation State (transcription regulator): Inhibited | SOX4 Activation z-score (transcription regulator): −2.397 | SOX4 Predicted Activation State (transcription regulator): Inhibited | SP1 Activation z-score (transcription regulator): −2.444 | SP1 Predicted Activation State (transcription regulator): Inhibited | SPDEF Activation z-score (transcription regulator): 4.415 | SPDEF Predicted Activation State (transcription regulator): Activated | SPI1 Activation z-score (transcription regulator): −3.51 | SPI1 Predicted Activation State (transcription regulator): Inhibited | SPIB Activation z-score (transcription regulator): −2.933 | SPIB Predicted Activation State (transcription regulator): Inhibited | SPZ1 Activation z-score (transcription regulator): −2.022 | SPZ1 Predicted Activation State (transcription regulator): Inhibited | SREBF2 Activation z-score (transcription regulator): 2.277 | SREBF2 Predicted Activation State (transcription regulator): Activated | SRF Activation z-score (transcription regulator): −3.269 | SRF Predicted Activation State (transcription regulator): Inhibited | SRSF2 Activation z-score (transcription regulator): 2.328 | SRSF2 Predicted Activation State (transcription regulator): Activated | STAT1 Activation z-score (transcription regulator): −3.918 | STAT1 Predicted Activation State (transcription regulator): Inhibited | STAT3 Activation z-score (transcription regulator): −4.716 | STAT3 Predicted Activation State (transcription regulator): Inhibited | STAT4 Activation z-score (transcription regulator): −2.401 | STAT4 Predicted Activation State (transcription regulator): Inhibited | TCF4 Activation z-score (transcription regulator): −2.836 | TCF4 Predicted Activation State (transcription regulator): Inhibited | TCF7L1 Activation z-score (transcription regulator): 2.373 | TCF7L1 Predicted Activation State (transcription regulator): Activated | TEAD1 Activation z-score (transcription regulator): −3.036 | TEAD1 Predicted Activation State (transcription regulator): Inhibited | TEAD2 Activation z-score (transcription regulator): −3.153 | TEAD2 Predicted Activation State (transcription regulator): Inhibited | TEAD3 Activation z-score (transcription regulator): −3.638 | TEAD3 Predicted Activation State (transcription regulator): Inhibited | TEAD4 Activation z-score (transcription regulator): −2.143 | TEAD4 Predicted Activation State (transcription regulator): Inhibited | TFAP2C Activation z-score (transcription regulator): 2.899 | TFAP2C Predicted Activation State (transcription regulator): Activated | TFEB Activation z-score (transcription regulator): 2.587 | TFEB Predicted Activation State (transcription regulator): Activated | TP53 Activation z-score (transcription regulator): −3.365 | TP53 Predicted Activation State (transcription regulator): Inhibited | TWIST1 Activation z-score (transcription regulator): −2.987 | TWIST1 Predicted Activation State (transcription regulator): Inhibited | Tcf7 Activation z-score (transcription regulator): −3.984 | Tcf7 Predicted Activation State (transcription regulator): Inhibited | XBP1 Activation z-score (transcription regulator): 3.505 | XBP1 Predicted Activation State (transcription regulator): Activated | YAP1 Activation z-score (transcription regulator): −4.255 | YAP1 Predicted Activation State (transcription regulator): Inhibited
